How the values were obtained:
[1] = tested on: NCl-H460 non-small cell lung cancer cells; assay: Alamar Blue cell viability assay (anti-proliferative/cytotoxic activity); format: cell-based; conditions: Homo sapiens, NCI-H460 cells, 72 hours incubation, read-out: −log IC50 NCI-H460 (mol/l), anti-proliferative/cytotoxic activity (converted)
Protocol: The anti-proliferative/cytotoxic activity of the compounds described herein, can be tested on NCl-H460 non-small cell lung cancer cells using the Alamar Blue cell viability assay (described in O'Brien et al. Eur J Biochem 267, 5421-5426, 2000). The compounds are dissolved as 20 mM solutions in dimethylsulfoxide (DMSO) and subsequently diluted in semi-logarithmic steps. DMSO dilutions are further diluted 1:10 into Dulbecco's modified Eagle's medium (DMEM) containing 10% fetal calf serum to a final concentration ten times as much as the final concentration in the test. NCl-H460 cells are seeded into 96 well flat bottom plates at a density of 4000 cells per well in a volume of 180 μl per well. 24 hours after seeding the 20 μl each of the compound dilutions in DMEM medium are added into each well of the 96 Well plate. Each compound dilution is tested as quadruplicates. Wells containing untreated control cells are filled with […] DMEM medium containing 1% DMSO. The cells are then incubated with the substances for 72 hours at 37° C. in a humified atmosphere containing 5% carbon dioxide. To determine the viability of the cells, 20 μl of an Alamar Blue solution (Biosource) are added and the fluorescence is measured at an extinction of 544 nm and an emission of 590 nm. For the calculation of cell viability the emission value from untreated cells is set to 100% viability and the emission rates of treated cells are set in relation to the values of untreated cells. Viabilities are expressed as % values.
The corresponding IC50 values of the compounds for anti-proliferative/cytotoxic activity are determined from the concentration-effect curves.
Representative IC50 values for anti-proliferation/cytotoxicity determined in the aforementioned assay follow from the following table A, in which the numbers of the compound correspond to the numbers of the examples.

[2] = tested on: NCl-H460 non-small cell lung cancer cells; assay: modified Alamar Blue cell viability assay for compound combinations; format: cell-based; conditions: in combination with the compounds according to this invention; concentration-effect curves, single compound vs. combination
Protocol: In order to assess favorable compound combinations in vitro which might be used for therapeutic applications, a modified Alamar Blue cell viability assay (described in O'Brien et al. Eur J Biochem 267, 5421-5426, 2000) is applied. For that purpose, anti-proliferative/cytotoxic effects of the compounds described herein in combination with other pharmacologically active compounds are assayed on NCl-H460 non-small cell lung cancer cells. The respective compounds are dissolved as 20 mM solutions in dimethylsulfoxide (DMSO) and subsequenty diluted in semi-logarithmic steps. […] To determine the viability of the cells, 20 μl of an Alamar Blue solution (Biosource) are added and the fluorescence is measured at an extinction of 544 nm and an emission of 590 nm. For the calculation of cell viability the fluorescence emission value from untreated cells is set to 100% viability and the emission values of treated cells are set in relation to the values of untreated cells. Viabilities are expressed as % values. […]
Synergistic or antagonistic effects of compound combinations can be determined from the concentration-effect curves by comparison of curve shapes and IC50 values for single compound treatment vs. the compound combination.

| SMILES | IC50 [1] [nM] | melting point [°C] | synergistic effects with the compounds according to this invention [2] |
| --- | --- | --- | --- |
| CCC(=O)c1c(-c2csc3ccccc23)c(C)n2c1-c1cc(OC)c(OC)cc1CC2 [Example 3, 1-(2-Benzo[b]thiophen-3-yl-8,9-dimethoxy-3-methyl-5,6-dihydro-pyrrolo[2,1-a]isoquinolin-1-yl)-propan-1-one] | 158 to 1580 | 181 to 183 |  |
| CCC(=O)c1c(-c2ccc(OC)c(OC)c2F)c(C)n2c1-c1cc(OC)c(OC)cc1CC2 [Example 2, 1-[2-(2-Fluoro-3,4-dimethoxy-phenyl)-8,9-dimethoxy-3-methyl-5,6-dihydro-pyrrolo[2,1-a]isoquinolin-1-yl]-propan-1-one] |  | 129 to 132 |  |
| CCC(=O)c1c(-c2cc(C)c(O)c(C)c2)c(C)n2c1-c1cc(OC)c(OC)cc1CC2 [Example 1, 1-[2-(4-Hydroxy-3,5-dimethyl-phenyl)-8,9-dimethoxy-3-methyl-5,6-dihydro-pyrrolo[2,1-a]isoquinolin-1-yl]-propan-1-one] | 158 to 1580 |  |  |
| COc1cc2c(cc1OC)-c1c(C(=O)C3CC3)c(-c3cc(C)c(O)c(C)c3)c(C)n1CC2 [Example 6, 1-Cyclopropyl-1-[2-(4-hydroxy-3,5-dimethyl-phenyl)-8,9-dimethoxy-3-methyl-5,6-dihydro-pyrrolo[2,1-a]isoquinolin-1-yl]-methanone] | 158 to 1580 |  |  |
| Nc1ncnc2c1nc(Sc1ccc(Cl)cc1)n2[C@@H]1O[C@@H]2COP(O)(=S)O[C@H]2[C@H]1O (stereo partly shown) [RP-8-CPT-cAMPs] |  |  | highly synergistic |
| CCC(=O)c1c(-c2ccc(-c3ccccc3)cc2)c(C)n2c1-c1cc(OC)c(OC)cc1CC2 [Example 5, 1-(2-Biphenyl-4-yl-8,9-dimethoxy-3-methyl-5,6-dihydro-pyrrolo[2,1-a]isoquinolin-1-yl)-propan-1-one] | 158 to 1580 | 209 to 211 |  |
| CCC(=O)c1c(-c2c[nH]c3ccccc23)c(C)n2c1-c1cc(OC)c(OC)cc1CC2 [Example 4, 1-[2-(1H-Indol-3-yl)-8,9-dimethoxy-3-methyl-5,6-dihydro-pyrrolo[2,1-a]isoquinolin-1-yl]-propan-1-one] | 158 to 1580 | 238 to 240 |  |

Reference: patent publication US20080064714A1, “Novel Pyrrolodihydroisoquinolines” (NYCOMED GMBH, priority 2005, published 2008)
